In the CATMoS acute toxicity set (Mansouri et al. 2021) one finds GHS category data, which are given here for 103 molecules.

SMILES strings stand for the structures.

The nature of the data set: GHS categories as the set defines them, by LD50: 1 up to 5, 2 up to 50, 3 up to 300, 4 up to 2000, 5 above 2000 mg/kg. The conditions noted are these: rat; in vivo; po.
Consider `O=c1cc[nH]c(=O)[nH]1`, for which the GHS category worked out at 5.

As for `CCOC1(c2ccco2)CCN(CCc2ccccc2)CC1C` (stereo not drawn), the GHS category came to 2.

The molecule `COc1cc(NC(=O)C(/N=N/c2cc(OC)c(S(=O)(=O)Nc3ccccc3)cc2OC)C(C)=O)c(OC)cc1Cl` (stereo not drawn) returned a GHS category of 5.

`CCOCC1COC(Cn2cncn2)(c2cc3ccccc3o2)O1` (stereo not drawn) showed a GHS category of 4.

Molecule `C/C(=C(\CCOC(=O)C(C)C)SS/C(CCOC(=O)C(C)C)=C(/C)N(C=O)Cc1cnc(C)nc1N)N(C=O)Cc1cnc(C)nc1N` had a GHS category of 5.

Turning to `CCCc1c(Cc2ccc(-c3sccc3-c3nn[nH]n3)cc2)c(=O)nc2nc(C)[nH]n12`, the GHS category worked out at 4.

Molecule `O=CCC(=O)c1ccc(C2CCCCC2)cc1` had a GHS category of 4.

`CC(C)Oc1ccc2c(c1)N(CCC1CCCCN1C)c1ccccc1S2` (stereo not drawn) yielded a GHS category of 5.

Molecule `C[Si](C)(C)C` had a GHS category of 5.

`CCN(CCCSc1nnnn1C)C(=O)C1CCCCC1` gave a GHS category of 4.

In turn, `O=CC(O)C(O)C(O)C(O)COC1OC(CO)C(O)C(O)C1O` (stereo not drawn) gave a GHS category of 4.

As for `CC(C)=CCC/C(C)=C/COCC=O`, the GHS category turned out to be 5.

In turn, `CCOC(=O)C(=O)Nc1cc(OCCOCCOC)ncn1` returned a GHS category of 4.

`O=C1C2C3CC(C(Br)C3Br)C2C(=O)N1CCN1C(=O)C2C3CC(C(Br)C3Br)C2C1=O` (stereo not drawn) registered a GHS category of 5.

`Cc1cc(CCCCCCCOc2ccc(C3=NCCO3)cc2)on1` displayed a GHS category of 5.

In the case of `O=C1C=C2C=C[C@@H]3C[C@@]2(O1)[C@H]1CCCCN31`, the GHS category is given as 4.

`CCOC(=O)CSc1nc(C(C)(C)C)nn1C(=O)N(C)C` showed a GHS category of 3.

Molecule `Nc1cc(Cl)nc(C(=O)O)c1Cl` yielded a GHS category of 5.

`O=C(Cn1cnnn1)N[C@@H]1C(=O)N2C(C(=O)O)=C(CSc3nncs3)CS[C@H]12`: the GHS category was determined as 5.

Regarding `CC(C)=CCCC(C)(C)O`, the GHS category was determined as 5.

Molecule `CCCCCCC(=O)OCC` had a GHS category of 5.

For `CCOc1ccc(N(CCCC(=O)O)C(=O)c2ccc(Cl)cc2)cc1`, the GHS category was found to be 5.

`COc1ccc(C2(O)c3ccccc3C3=NCCN32)cc1` (stereo not drawn) had a GHS category of 4.

`NNC(=O)CCCCC(=O)NN` returned a GHS category of 5.

`CC(C)COP(=O)(OCC(C)C)OCC(C)C` came in with a GHS category of 5.

Regarding `CCO[Si](C)(OCC)OCC`, the GHS category stood at 5.

Turning to `CC1NC(=S)C(C(O)O)C(O)C1C` (stereo not drawn), the GHS category is reported as 5.

Take `O=C(O)c1ccc2ccccc2c1`: the GHS category is reported as 5.

As for `CNC(=O)C(=NNc1cccc(C)c1)C(C)=O`, the GHS category turned out to be 5.

Regarding `COc1nc(C)nc(=NC(O)=NS(=O)(=O)c2ccccc2C(=O)O)[nH]1`, the GHS category amounted to 5.

`O=C(NC(=O)c1c(F)cccc1F)Nc1cc(Cl)c(F)c(Cl)c1F` yielded a GHS category of 5.

For `C=CC(C)=CCC1OC1(C)C` (stereo not drawn), the GHS category is on record as 5.

`O=C(Cc1ccccc1)Cc1ccccc1` showed a GHS category of 5.

`C=C(C)CCC[C@H](C)CCOC(=O)Cc1ccccc1` yielded a GHS category of 5.

As to `NC(=O)OC[C@@H]1[C@H](NC(=O)/C(=N\OCC(=O)O)c2csc(N)n2)C(=O)N1S(=O)(=O)O`, the GHS category is 5.

Consider `CCC(=O)C=CC1C(C)=CCCC1(C)C` (stereo not drawn), for which the GHS category is listed as 5.

Take `CCCCCCCCCCCCCCCCCOS(=O)(=O)O`: the GHS category stood at 4.

In turn, `O=C(CCl)Nc1nc2cc(Cl)ccc2o1` showed a GHS category of 4.

`OC[C@H]1NC[C@H](O)[C@@H](O)[C@@H]1O` yielded a GHS category of 5.

As for `CC1=NN(c2cccc(S(=O)(=O)O)c2)C(=O)C1/N=N/c1cc(Cl)c(C)cc1S(=O)(=O)O` (stereo not drawn), the GHS category was 5.

On to `CC1CC(OC(=O)C(Oc2ccccc2Cl)C(C)C)CC(C)(C)C1` (stereo not drawn), for which the GHS category stood at 5.

With `Nc1nc(N)nc(Nc2nc(N)nc(N)n2)n1`, the GHS category worked out at 5.

Molecule `CCCc1nc2ccnn2c(NCCN2CCOCC2)c1Cc1ccc(-c2ccccc2-c2nn[nH]n2)cc1` yielded a GHS category of 4.

For `CC(CCC(=O)O)C(=O)O` (stereo not drawn), the GHS category worked out at 4.

Consider `O=C(O)c1cc(O)[nH]c(=O)c1`, for which the GHS category came to 5.

Turning to `CC(C)c1cc(C(C)C)c(N)c(C(C)C)c1N`, the GHS category was 4.

`C#CCNC(=O)Oc1cccc2c1OC(C)(C)O2` yielded a GHS category of 3.

`CCCCC(CC)COC(=O)CC(CC(=O)OCC(CC)CCCC)(OC(C)=O)C(=O)OCC(CC)CCCC` (stereo not drawn) returned a GHS category of 5.

For `CCCCCCCCCCCCCCCNCCCCCCCCCCCCCCC`, the GHS category is listed as 5.

In turn, `O=C(O)CC[C@@H](C(=O)O)N(CC(=O)O)CC(=O)O` returned a GHS category of 5.

Consider `CCCCOC(=O)c1ccccc1N`, for which the GHS category is 5.

`CCc1cccc(CC)c1NC(=O)c1sc(N)nc1C` gave a GHS category of 4.

`FC(F)(F)c1cccc(-n2nc(OCCN3CCCCC3)c3cccnc32)c1` had a GHS category of 4.

Take `CC(C)CCOCCc1ccccc1`: the GHS category was 5.

The molecule `COc1ccc(C(=O)Nc2ccc(C(N)=O)cc2)cc1[N+](=O)[O-]` displayed a GHS category of 5.

In turn, `CCCCCCCCCCCCCCCC(=O)OC[C@@H](O)[C@H]1OC[C@H](O)[C@H]1O` registered a GHS category of 5.

For `COCCOCCOC(=O)C(=O)Nc1nc(-c2ccccc2)cs1`, the GHS category is listed as 5.

In the case of `O=S(=O)(O)c1ccc(Nc2nc(Cl)nc(Cl)n2)cc1`, the GHS category is 5.

Molecule `FC(F)(F)c1nc(NC2CC2)c2ncn(CC3CC3)c2n1` had a GHS category of 3.

`CC(=O)c1ccc(S(=O)(=O)NC(=O)NC2CCCCC2)cc1` came in with a GHS category of 5.

Molecule `Cn1c(=O)c2c([nH]c(=O)n2C)n(C)c1=O` displayed a GHS category of 5.

Molecule `CCC(Oc1ccc(C(C)(C)CC)cc1C(C)(C)CC)C(=O)O` (stereo not drawn) displayed a GHS category of 5.

`O=C1CC(=O)NC(=O)N1` displayed a GHS category of 5.

In the case of `CC1=CCC(C=CC(C)C(C)O)C1(C)C` (stereo not drawn), the GHS category was 4.

In turn, `O=CC1=C(C(Cl)(Cl)Cl)C(Cl)(Cl)C(O)C1(Cl)Cl` (stereo not drawn) displayed a GHS category of 4.

Molecule `Clc1ccc(N/C(=N/C2CCCCC2)c2ccccc2)cc1Cl` registered a GHS category of 5.

On to `CC(O)COC(=O)c1c(Br)c(Br)c(Br)c(Br)c1C(=O)OCCOCCO` (stereo not drawn), for which the GHS category is 5.

`CCC1(C)COC(Cn2cncn2)(c2cc3ccccc3o2)OC1` (stereo not drawn): the GHS category was determined as 4.

The molecule `CCCCCCCCOC(=O)c1ccc(C(=O)OCCCCCCCC)cc1` had a GHS category of 5.

`C=C(C)C1CCC(C)=C1CC(C)(C)COC(=O)CC` (stereo not drawn) displayed a GHS category of 5.

As for `C=C(C)C(=O)OCC[N+](C)(C)C`, the GHS category is recorded as 5.

Molecule `CCCCC(CC)COC(=O)OCC(CC)CCCC` (stereo not drawn) came in with a GHS category of 5.

With `CCCC(=O)OCCC(C)CCCC(C)C` (stereo not drawn), the GHS category stood at 5.

On to `CCCC(=O)c1ccc2c(c1)oc(=O)n2C`, for which the GHS category is given as 5.

The molecule `CCOCC1COC(Cn2cncn2)(c2cc3cc(Cl)cc(Cl)c3o2)O1` (stereo not drawn) returned a GHS category of 4.

Molecule `CC1COC(Cn2cncn2)(c2cc3ccccc3o2)O1` (stereo not drawn) displayed a GHS category of 4.

As to `NC(N)=Nc1nc2c(s1)CN(C(=O)NC1CC1)CC2`, the GHS category is recorded as 4.

Molecule `C=C1c2cccc(O)c2C(=O)C2=C(O)[C@]3(O)C(=O)C(C(N)=O)=C(O)[C@@H](N(C)C)[C@@H]3[C@@H](O)[C@H]12` had a GHS category of 5.

As to `CC1CNCCN1SC=S` (stereo not drawn), the GHS category is reported as 5.

As to `CN[C@@H]1[C@H](O[C@H]2[C@H](O[C@@H]3[C@H](O)[C@@H](O)[C@@H](OC(N)=O)[C@@H](O)[C@@H]3NC(=N)N)O[C@@H](C)[C@]2(O)CO)O[C@@H](CO)[C@H](O)[C@H]1O`, the GHS category worked out at 5.

Molecule `O=C1CCCCCCCCCCCCCCCO1` came in with a GHS category of 5.

`Nc1c(OCCOC(=O)Oc2ccccc2)cc(O)c2c1C(=O)c1ccccc1C2=O` had a GHS category of 5.

For the molecule `O=C(c1ccccc1)C1CCCCC1`, the GHS category is on record as 5.

`Cc1ccc2c([nH]c(=O)c3c(=O)cc(C(=O)OCCC(C)C)oc32)c1C` registered a GHS category of 5.

`C=CC(=O)OCCCCOc1ccc(C(=O)Oc2ccc(OC(=O)c3ccc(OCCCCOC(=O)C=C)cc3)c(C)c2)cc1` had a GHS category of 5.

`CCCCCCCCNC(=O)c1cnc2cccc(C)n2c1=O` came in with a GHS category of 3.

On to `COc1cc(OC)nc(NC(=O)NS(=O)(=O)c2c(-c3nnn(C)n3)cnn2C)n1`, for which the GHS category is given as 5.

In the case of `O=C(c1ccc(Cl)cc1)n1ccnc1-c1ccccc1`, the GHS category is 4.

`CCOC(=O)C(Cl)C(=O)OCC` registered a GHS category of 4.

`Nc1ccc(N)c(S(=O)(=O)O)c1` registered a GHS category of 5.

`COc1ccc2cc3[n+](cc2c1OC)CCc1cc2c(cc1-3)OCO2` returned a GHS category of 5.

`CO[Si](CC(C)C)(OC)OC` gave a GHS category of 5.

Molecule `CCCc1ccc(OCC(=O)N2CCN(C(=O)COc3ccc(CCC)cc3OC)CC2)c(OC)c1` gave a GHS category of 4.

In turn, `Cc1c(CC(=O)O)c2c(n1CC(C)C)CC(C)(C)CC2=O` came in with a GHS category of 5.

Take `CCCCCCCCC(C)C`: the GHS category was 5.

`CC(C)OC(=O)c1cc(C(=O)OC(C)C)cc([N+](=O)[O-])c1` yielded a GHS category of 5.

`CCC(c1ccc(O)cc1)C(C#N)c1ccc(O)cc1` (stereo not drawn) yielded a GHS category of 5.

Molecule `CC[N+](CC)(CC)CCOc1cccc(OCC[N+](CC)(CC)CC)c1OCC[N+](CC)(CC)CC` registered a GHS category of 4.

For `O=[N+]([O-])c1cc2c(Nc3ccc(F)c(Cl)c3)ncnc2cc1S(=O)(=O)c1ccccc1`, the GHS category is reported as 5.

Take `CCCc1nc2ccnn2c(NCCN2CCCC2)c1Cc1ccc(-c2ccccc2-c2nn[nH]n2)cc1`: the GHS category was determined as 4.

Turning to `CCCCC1C(=O)N(c2cccc(O)c2)N(c2cccc(O)c2)C1=O`, the GHS category amounted to 4.

In turn, `CN(C)CCCOc1nn(-c2cccc(C(F)(F)F)c2)c2ncccc12` came in with a GHS category of 4.

`COC1(NC(=O)C2SC(=C(C(N)=O)C(=O)O)S2)C(=O)N2C(C(=O)O)=C(CSc3nnnn3C)CSC21` (stereo not drawn) showed a GHS category of 5.
